One series relates to dsDNA, ssDNA, and RNA. Kind of series: Selectivity test on dsDNA, ssDNA, and RNA in TE buffer. To be noted: 2 μM dye, 10 μg/mL nucleic acid, 1×TE buffer, ex 480 nm (36, 40) or 620 nm (49), FIG. 2.
Series [1] relates to live and fixed HeLa cells. Put plainly: Cellular nucleic acid staining. It is filed as cell-based. To be noted: 1 μM in PBS buffer, 10 min, fluorescence microscopy, FIG. 5. Here is the method: Compound 38, compound 42, and compound 61 were prepared in 1 mM stock solution in water, respectively. Each compound at 1 μM concentration in PBS buffer was incubated with live and fixed HeLa cells in 96-well plate for 10 min, respectively. The fluorescence imaging of cells was taken on a fluorescence microscopy with a 488 nm excitation laser and a 520±15 nm emission filter, as shown in FIG. 5.

For series [2] the following is noted: background; cited from earlier work.
In another series the test system is nucleic acids. The note with it: background; cited from earlier work.
The next series deals with DNA or RNA. Kind of series: Binding selectivity on DNA or RNA (effect of R3). The note with it: R3 methyl 4-benzoate versus R3 H.

Method for dsDNA, ssDNA, and RNA: Compound 36, compound 40, and compound 49 were prepared in 2 μM concentration in 1×TE buffer, individually. Salmon sperm dsDNA, calf thymus ssDNA, and E. coli rRNA were prepared in 10 μg/mL concentration in 1×TE buffer, individually. Equal amount of each solution of dsDNA, ssDNA, and RNA was added to the solutions of compound 36, compound 40 and compound 49, individually. The emission spectrum associated with each of the solutions was scanned at excitation wavelength 480 nm for compound 36 and 40, and at excitation wavelength 620 nm for compound 49.

For `COCCOCCOCCOCCN1C(N(CCC[N+](C)(C)C)CCC[N+](C)(C)C)=C/C(=C/c2sc3ccccc3[n+]2C)c2ccccc21` [Compound 40], the “selectivity among dsDNA, ssDNA and RNA (fluorescence emission spectra)” value in the series with dsDNA, ssDNA, and RNA was “good selectivity for DNA versus RNA”. Take `CC[N+](C)(CC)Cc1ccc(C2=C/C(=C/c3sc4ccccc4[n+]3C)c3ccccc3N2CCOCCOCCOCCOC)cc1` [Compound 42]: in series [1], the live cell permeability entry was “live cell impermeant”. Consider `CC[n+]1c(-c2ccccc2)c2cc(N)ccc2c2ccc(N)cc21` [ethidium bromide, Ethidium bromide], for which the mutagenicity result in series [2] is “mutagenic”. Regarding `CCCN1C=C/C(=C\c2sc3ccccc3[n+]2C)c2ccccc21` [SYBR Safe], the “detection sensitivity on nucleic acids” value with nucleic acids is recorded as “low sensitive than desired”. Take `CN(C)CCCN(CCCN(C)C)C1=C/C(=C\c2sc3ccccc3[n+]2C)c2ccccc2N1CCCCCC(=O)NCCOCCO.[I-]` [Compound 61]: in series [1], the live cell permeability entry is “live cell impermeant”. Regarding `CN1C(=Cc2cc[n+](C)c3ccccc23)Sc2ccccc21` [Thiazole Orange], the “detection sensitivity on nucleic acids” value with nucleic acids was “low detection sensitivity”. Take `CN(C)CCCN(CCCN(C)C)C1=C/C(=C\C=C\c2sc3ccc(S(=O)(=O)[O-])cc3[n+]2C)c2ccccc2N1C` [Compound 53]: the “binding selectivity on DNA or RNA” value in the series on DNA or RNA is given as “high selectivity for DNA over RNA”.
